# Patent US20010014742A1, “Water-soluble prodrugs of azole compounds” (priority 1999, published 2001)
# Assay: aqueous solubility
# Assay type: physicochemical
# Details: water at pH 6.8
smiles,measurement,value
"C[C@@H](c1nc(-c2ccc(C#N)cc2)cs1)C(O)(Cn1cncn1)c1ccc(F)cc1F (stereo partly drawn) [the above triazole compound, (2R,3R)-3-[4-(4-cyanophenyl)thiazol-2-yl]-2-(2,4-difluorophenyl)-1-(1H,1,2,4-triazol-1-yl)-butan-2-ol]",solubility,0.6 µg/mL
